From patent publication US8524744B2, “Arylamine ketones, their preparation methods, the pharmaceutical composition containing them and their use” (Institute of Mataria Medica, Chinese Academy of Medical …, priority 2004, dated 2013)
Counter-ions that a name gives are not always drawn.

Test system: delayed hypersensitivity in rats
Assay: delayed hypersensitivity in rats (type II collagen ear challenge)
Type: in vivo, rat
Details: Dose 100 mg · kg^−1 × 13 d, orally
Method: 0.1 ml of type II H collagen (2 mg·ml^−1) was intracutaneously injected into the hind foot of Wistar rat (male, 100±10 g) (d0). Seven days later 0.1 ml of type II collagen was intracutaneously injected into the root of tail. At 19th day (d19) the animals inflamed were selected to supply the experiment and randomly divided into two groups. […] The perimeter of the ankle joint of two hind feet, weight of body was measured and the systemic inflammation (including the toes of front and hind feet, ears and tails) was judged by scoring every 3 days. At 41th day 40 μl of 0.2% type II collagen was intracutaneously injected into the right ear. Twenty-four hr later the edema level was evaluated by weighing the ponderance of ear piece (diameter: 8 mm). At 42th day the blood was collected by decapitating. The serum was separated by centrifugating. The contents of antibody for anti-type II collagen, cytokine TNF-α, IL-1β in serum were determined by ELISA kit.

For `CCOC(=O)C1CCN(CCC(=O)/C=C/c2ccc(Cl)cc2)CC1` [Compound 3, 5-[(4-Ethoxycarbonyl)piperidyl]-1-(4-chlorophenyl)-1-penten-3-one hydrochloride], the “Inhibition (%) of delayed hypersensitivity” value was 21.2%.
